Measured values: US20080287662A1, “Balanites Aegyptiaca Saponins and Uses Thereof” (priority 2005, published 2008)
Marks after values point to notes of the source that are not given here.

How the values were obtained:
[1] = tested on: mung bean seeds and seedlings; test: Mung bean germination, growth and development under saline water irrigation; format: in vivo; parameters: key to Germination (4 days): ++++ more advanced seedling; typical germination using tap water +++ (1 cm height with two leave starting to be expended); ++ less advanced seedling; + not germinated seedling; key to Foliage (14 days): aaaa more elongated seedlings; Typical mung bean foliage development 14 days after germination using tap water aaa (~10 cm seedling with fully expanded two leave and abscised cotyledons); aa less elongated seedlings; a dwarf seedling; key to Root: bbbb more elongated and branched roots; Typical mung bean root system 14 days after germination using tap water bbb (~6 cm well branched roots); bb less elongated roots; b short and necrotic root system; settings: for Root: 14 days after germination
Procedure: Addition of Balanites mesocarp extract (ME) saponins in moderate concentration of […] to the irrigation saline water stimulated the germination and development of mung bean seeds in comparison to control. It also stimulated the germination of the seeds in comparison to control and to saline treatments. The effect on the foliage and the roots of the treated mung bean seedlings corresponded to the effect on the germination. These effects are directly related to the effect of Balanites mesocarp saponin treatment on water uptake by the mung bean seeds and germinated seedlings.

[2] = Vitamin C delivery through isolated rat skin; format: in vitro ADME; settings: 25° C., 60% relative humidity
Procedure: The effect of Balanites mesocarp saponin preparation on delivery of vitamin C through the skin was tested using isolated rat skin system. 100 μl of saponin nanovesicles containing encapsulated vitamin C (2 mg) were prepared from saponin extracted from Balanites mesocarp by the procedure A described in Example 5(i) above. 15 μl of the preparation were loaded on an isolated rat skin in three replicates. The treatments were applied in a controlled environment (25° C. and 60% relative humidity) and incubated for 30 or 60 min. The solution delivered through the isolated skin was tested using an HPLC system for detecting the level of vitamin C corresponding to a standard peak of vitamin C.

mung bean cuttings = test: Rooting of mung bean cuttings; format: in vivo; settings: IBA 100 μM, saponins 100 ppm; rooting assessed seven days
Procedure: This effect was increased as saponin concentration increased up to 500 ppm for Balanites mesocarp extract saponins and 50 ppm for Balanites root extract saponins, and up to 100 ppm for Quillaja saponaria bark extract saponins. The treatment solution was replaced by fresh water after 24 h and the rooting was assessed 10 days after the initiation of the experiment. The stimulating effect of saponins on root formation may be related to their hormone-like effect, but their effect on root elongation seems to be mainly due to their influence on increase of water uptake. The enhancing effect of saponins on rooting of mung bean cuttings when applied together with the synthetic plant hormone indole-3-butyric acid (IBA) is shown in Table 17. […] Similar, but weaker, enhancing effect was found with Quillaja bark extract saponins (the treatment solution was replaced by fresh water after 24 h and the rooting was assessed seven days after the initiation of the experiment).

Pythium aphanidermatum = test: Mycelial colony growth inhibition in vitro; format: cell-based
Procedure: Cultures of Pythium aphanindermatum were isolated from plant species showing Pythium symptoms. The isolate was placed in potato dextrose agar (PDA, Difco, Detroit, Mich., USA) supplemented with 100 ppm of streptomycin and incubated in the dark at 27° C. for 2 days. The colony of Pythium was identified visually and microscopically and sub-cultured on PDA without antibiotics as described by Tsror et al (2001).
For fungal growth inhibition measurements five concentrations of Balanites mesocarp saponin (ME) preparation (0.1, 0.5, 1.0, 2.0 and 4.0% w/v) and two concentrations of Metalaxyl-10 (a systemic benzenoid fungicide, 1 and 5 ppm as positive control) were added in separate Erlenmeyer flasks containing sterilized (121° C., 2 atm, 20 min) PDA, and mixed properly. Samples of PDA containing Balanites mesocarp saponin preparation and Metalaxyl-10 (15 ml) were poured into sterilized petri dishes separately and allowed to solidify. 5 mm in diameter agar plug of the fungal isolate was placed in the center of each plate. The plates were incubated at 27° C. (10 plates per treatment). The colony diameter of the mycelial growth was measured after 24 and 48 h and the inhibitory activity of each treatment was expressed as the growth inhibition percentage as compared to the negative control (0% ME preparation) using the formula: Growth inhibition percentage=[100-(Treatment growth/Control growth*100)].

[3] = tested on: Aedes aegypti mosquito larvae; test: Effect of purified main mesocarp saponin on Aedes aegypti larvae, pupa and adults; format: in vivo
Procedure: Eggs of laboratory-grown Aedes aegypti were hatched in tap water in a growth chamber with a 16-hour photoperiod, at a temperature of 25±3° C. Twenty to twenty five larvae at the late 3rd and early 4th instars were placed into 150-ml disposable plastic cups containing 100 ml of tap water together with water-soluble saponin solutions of various concentrations. During the experiments, treated and control (0 mg/L saponin) cups were examined after 2, 4, 9 and 11 days and number of alive larvae or adults were counted. The data are presented in percentage together with an analysis of variance using the Tukey-Kramer HSD test (SAS's JMP software) at the 0.01 level of significance.

Escherichia coli = test: Bacterial growth in LB (OD660); format: cell-based
Procedure: Standard Luria Broth solution (LB) was prepared using […] yeast extract, 10 mg NaCl and 10 mg Typtone per ml of DDW. A small portion of the Escherichia coil inoculum (LMC1492 strain, obtained from the Life Sciences Department of the Ben-Gurion University) was added to the LB solution in a sterilized Erlenmeyer and inoculated in a rotary water bath incubator at 250 rpm and 37° C. The tested extracts were first prepared in 5% in LB solution and used as stock solution for further dilution. Lower concentrations were obtained by mixing this stock solution in the required ratios with plain LB solution. The extract containing solution of the required concentrations were prepared in 10/140 mm glass test tubes in volumes of 1.8 ml each and incubated in a rotary water bath incubator (Gyvotory-676, New Brunswick Scientific Co. Inc, NY) at 250 rpm and 37° C.

[4] = Penetration rate of 14C-labeled 2,4-D across isolated leaf cuticle membranes with saponin adjuvant; parameters: species or system Citrus grandis; settings: 1% (w/v) adjuvant, 30° C. and 30% RH

## [Cl-].[Na+] [NaCl]
[1]; 75 mM
  Foliage (14 days): aa
  Germination (4 days): ++
  Root: bbb
[1]; 150 mM
  Foliage (14 days): a
  Germination (4 days): +
  Root: bb

## O=C1O[C@H]([C@@H](O)CO)C(O)=C1O [Vitamin C, ascorbic acid]
[2]; 30 minutes incubation
  Vitamin C level in skin: 259 ± 109 ng/cm^2 skin surface area
[2]; 60 minutes incubation
  Vitamin C level in skin: 326 ± 131 ng/cm^2 skin surface area

## O=C(O)CCCc1c[nH]c2ccccc12 [IBA, indole-3-butyric acid]
Mung bean cuttings
  Average root length: 10.1 ± 0.4^cd mm
  Number of roots per cutting: 28.3 ± 1.3^c

## CC(CCC1(O)O[C@H]2C[C@H]3[C@@H]4CC=C5C[C@@H](O[C@@H]6O[C@H](CO)[C@@H](O[C@@H]7O[C@H](CO)[C@@H](O)[C@H](O)[C@H]7O)[C@H](O)[C@H]6O[C@@H]6O[C@@H](C)[C@H](O)[C@@H](O)[C@H]6O)CC[C@]5(C)[C@H]4CC[C@]3(C)[C@H]2[C@@H]1C)CO[C@@H]1O[C@H](CO)[C@@H](O)[C@H](O)[C@H]1O (stereo partly drawn) [26-(O-β-D-glucopyranosyl)-3β,22,26-trihydroxyfurost-5-ene 3-O-β-D-glucopyranosyl-(1→4)-[α-L-rhamnopyranosyl-(1→2)]-β-D-glucopyranoside]
Pythium aphanidermatum; 0.1% w/v, 24 h
  % Growth inhibition: 4.29 ± 1.50 d %
Pythium aphanidermatum; 0.1% w/v, 48 h
  % Growth inhibition: 1.00 ± 0.01 e %
Pythium aphanidermatum; 0.5% w/v, 24 h
  % Growth inhibition: 13.96 ± 3.21 d %
Pythium aphanidermatum; 0.5% w/v, 48 h
  % Growth inhibition: 5.35 ± 1.32 e %
Pythium aphanidermatum; 1.0% w/v, 24 h
  % Growth inhibition: 66.39 ± 3.52 c %
Pythium aphanidermatum; 1.0% w/v, 48 h
  % Growth inhibition: 26.01 ± 2.95 c %
Pythium aphanidermatum; 2.0% w/v, 24 h
  % Growth inhibition: 81.96 ± 1.30 b %
Pythium aphanidermatum; 2.0% w/v, 48 h
  % Growth inhibition: 70.87 ± 2.57 b %
Pythium aphanidermatum; 4.0% w/v, 24 h
  % Growth inhibition: 82.47 ± 1.30 b %
Pythium aphanidermatum; 4.0% w/v, 48 h
  % Growth inhibition: 80.01 ± 0.42 b %
[3]; 10 ppm, day 0
  % adults: 0%
  % dead larvae: 0%
  % pupa: 0%
[3]; 10 ppm, day 2
  % adults: 0%
  % dead larvae: 0 d %
  % pupa: 0%
[3]; 10 ppm, day 4
  % adults: 0%
  % dead larvae: 0 d %
  % pupa: 41 ab %
[3]; 10 ppm, day 9
  % adults: 41 bc %
  % dead larvae: 0 d %
  % pupa: 0 b %
[3]; 10 ppm, day 11
  % adults: 87 a %
  % dead larvae: 1.25 d %
  % pupa: 0%
[3]; 100 ppm, day 0
  % adults: 0%
  % dead larvae: 0%
  % pupa: 0%
[3]; 100 ppm, day 2
  % adults: 0%
  % dead larvae: 0 d %
  % pupa: 0%
[3]; 100 ppm, day 4
  % adults: 0%
  % dead larvae: 0 d %
  % pupa: 45 a %
[3]; 100 ppm, day 9
  % adults: 70 a %
  % dead larvae: 6.25 d %
  % pupa: 0 b %
[3]; 100 ppm, day 11
  % adults: 85 a %
  % dead larvae: 6.25 cd %
  % pupa: 0%
[3]; 300 ppm, day 0
  % adults: 0%
  % dead larvae: 0%
  % pupa: 0%
[3]; 300 ppm, day 2
  % adults: 0%
  % dead larvae: 50 c %
  % pupa: 0%
[3]; 300 ppm, day 4
  % adults: 0%
  % dead larvae: 50 c %
  % pupa: 15 bc %
[3]; 300 ppm, day 9
  % adults: 15 d %
  % dead larvae: 50 c %
  % pupa: 33.25 a %
[3]; 300 ppm, day 11
  % adults: 50 b %
  % dead larvae: 48.75 bc %
  % pupa: 0%
[3]; 500 ppm, day 0
  % adults: 0%
  % dead larvae: 0%
  % pupa: 0%
[3]; 500 ppm, day 2
  % adults: 0%
  % dead larvae: 77.5 b %
  % pupa: 0%
[3]; 500 ppm, day 4
  % adults: 0%
  % dead larvae: 78.75 b %
  % pupa: 9.5 c %
[3]; 500 ppm, day 9
  % adults: 20 cd %
  % dead larvae: 78.25 b %
  % pupa: 1.75 b %
[3]; 500 ppm, day 11
  % adults: 22.5 c %
  % dead larvae: 78.25 ab %
  % pupa: 0%
[3]; 800 ppm, day 0
  % adults: 0%
  % dead larvae: 0%
  % pupa: 0%
[3]; 800 ppm, day 2
  % adults: 0%
  % dead larvae: 95 a %
  % pupa: 0%
[3]; 800 ppm, day 4
  % adults: 0%
  % dead larvae: 95 a %
  % pupa: 1.75 c %
[3]; 800 ppm, day 9
  % adults: 0 d %
  % dead larvae: 93.75 a %
  % pupa: 0 b %
[3]; 800 ppm, day 11
  % adults: 5 c %
  % dead larvae: 94.25 a %
  % pupa: 0%
[3]; 1000 ppm, day 0
  % adults: 0%
  % dead larvae: 0%
  % pupa: 0%
[3]; 1000 ppm, day 2
  % adults: 0%
  % dead larvae: 90 a %
  % pupa: 0%
[3]; 1000 ppm, day 4
  % adults: 0%
  % dead larvae: 94 a %
  % pupa: 3.75 c %
[3]; 1000 ppm, day 9
  % adults: 3.75 d %
  % dead larvae: 93.75 a %
  % pupa: 0 b %
[3]; 1000 ppm, day 11
  % adults: 3.75 c %
  % dead larvae: 96.25 a %
  % pupa: 0%
Escherichia coli; 1.0% (w/v)
  growth inhibition: 33.3%
Escherichia coli; series 0.01-1.0% w/v
  concentration up to which bacterial growth was increased: 0.5 % (w/v)

## Triton X-100
[4]
  Factor increase (times) of penetration rate vs DDW: 18.6 times
  Penetration rate of 2,4-D (^14C): 11.00 × 10^−5 a h^−1
[4]; listed as Triton
  Factor increase (times) of penetration rate vs DDW: 19.1 times
  Penetration rate of 2,4-D (^14C): 0.00011 h⁻¹
